{
  "source": "patent US11058700B2",
  "about": "“Macrocyclic lactones and uses thereof as modulators of purinergic receptors” (City of Hope, priority 2015, dated 2021)",
  "tested_on": "Caspase-1, Caspase-3 and PARP in 4T1.2 and MDA-MB-231 cells",
  "assay": "Caspase activation and PARP cleavage",
  "assay_type": "cell-based, mouse, human",
  "conditions": "32 μM, 4 h",
  "description": "FIGS. 1A-1H. Ivermectin kills breast cancer cells through a mixed apoptotic and necrotic mechanism. FIG. 1A: Mouse (4T1.2) and human (MDA-MB-231) TNBC cells manifest similar sensitivity to Ivermectin. Viability of cells treated with various doses of Ivermectin for 24 h. FIG. 1B: Extended exposure time reduces IC50 values to as low as 2 μM. 4T1.2 cells were seeded at 100 cells/well and individual colonies were counted after a week. Cancer cells were exposed to Ivermectin during the initial 24 h or during the entire duration of the assay. FIG. 1C: MDA-MB-231 breast cancer cells manifest higher sensitivity to Ivermectin compared to normal non-transformed human foreskin fibroblasts (HFFs). FIG. 1D: Flow cytometry analysis showing that cell death proceeds through two distinct pathways: a directly necrotic 7AAD-single positive or Annexin V/PS-single positive apoptotic pathway. FIG. 1E: Kinetics of necrotic versus apoptotic killing of 4T1.2 breast cancer cells. FIG. 1F: Ivermectin-induced cell death can be reversed by inhibition of various controlled cell death pathways. 4T1.2 cells were treated for 4 h with 32 μM Ivermectin in the presence of μM concentrations of Z-vad-fmk, Necrostatin-1, Digoxin, or VX-765, as indicated. […]\nCaspase activation and PARP cleavage. […] PARP cleavage was analyzed after fixing the cells (eBioscience, Cat #00-5123 and Cat #00-5223) for 30 min at RT. […]",
  "data": [
    {"smiles": "CC[C@H](C)[C@H]1O[C@]2(CC[C@@H]1C)C[C@@H]1C[C@@H](C/C=C(\\C)[C@@H](O[C@H]3C[C@H](OC)[C@@H](O[C@H]4C[C@H](OC)[C@@H](O)[C@H](C)O4)[C@H](C)O3)[C@@H](C)/C=C/C=C3\\CO[C@@H]4[C@H](O)C(C)=C[C@@H](C(=O)O1)[C@]34O)O2", "note": "[Ivermectin]", "values": [
      {"measurement": "PARP cleavage", "value": "rapid cleavage of PARP"},
      {"measurement": "caspase activation", "value": "potent caspase-1 and caspase-3 activation"}
    ]}
  ]
}
